Assay results published in patent publication US8328898B2, “Environment-friendly carbon-nano synergistic complex fertilizers” (priority 2007, dated 2012).
One block for each molecule: values may come before it.

Legend:
[1] = not told
tomato Jinpengshengguan = test: Tomato production experiment (Experiment 11); type: in vivo
winter wheat Jing411 = test: Winter wheat field experiment, Agricultural Science Research Institute of Daxing District; type: in vivo; conditions: for Production increasing rate (comparing with control): in vivo; for Average production per mu: winter wheat Jing411
Source text: (§1) Experiments below are preceded with general fertilizing amount, and using the same fertilizing amount and the same fertilizing methods.

[2] = test system: winter wheat Beinong 9549; test: Winter wheat field experiment, demonstration park of high quality agricultural products center; type: in vivo; conditions: for Increase rate: vs control; for Average production per mu: winter wheat Beinong 9549, repeated 3 times
Procedure: Experiments below are preceded with general fertilizing amount, and using the same fertilizing amount and the same fertilizing methods. […] The Agricultural Science Research Institute of […] District, Beijing • D. Qingyundian Station, the Agricultural Science Research Institute of […] District, Bejing • (2) Experimental protocols and production determination of winter wheat in every experimental site […] Production is determined on Jun.

Ventura celery = test: Celery production experiment
winter wheat 9428 = test: Winter wheat field experiment, Qingyundian Station; type: in vivo; conditions: for Production per mu: winter wheat 9428
Source text: as §1

corn Jiyuan No. 1 = test: Corn field experiment; type: in vivo; conditions: for Ear weight in the whole area: fresh weight of corn
Source text: Experiments below are preceded with general fertilizing amount, and using the same fertilizing amount and the same fertilizing methods. 2.

eggplant = test: Production increasing effects on eggplant (Experiment 9); type: in vivo
[3] = comparing with ordinary ammonium bicarbonate (ABC)
[4] = eggplant seedling, 0.0165 kg fertilizer per plant

- Average of N2O—N annual emission flux [1]: 71.92 μg N2O/m^3-h
- N2O—N annual emission flux range [1]: −197-2867 μg N2O/m^3-h
- N2O—N emission flux/nitrogen fertilizer applied [1]: 1.98%
Molecule: NC(N)=O [URA, urea]
- Production increasing rate (tomato Jinpengshengguan; control = 0): 9.80%
- Average area production (tomato Jinpengshengguan; during growth of tomato, repeated 6 times): 109.65 kg
- Production increasing rate (comparing with control) (winter wheat Jing411): 0.28%
- Average production per mu (winter wheat Jing411): 328.67 kg
- Increase rate [2]: 17.07%
- Average production per mu [2]: 487 kg
- Increasing rate comparing with urea (Ventura celery; equal weight as urea): 0%
- Average fresh weight of plants (Ventura celery; equal weight of fertilizers): 11.55 kg/20 plants
- Fresh weight of celery per mu (Ventura celery; in vivo): 7703.85 kg
- Increase rate comparing with control (Ventura celery; in vivo): 30.2%
- Production increased per mu (Ventura celery; over control): 1787.56 kg
- Production increasing rate (winter wheat 9428; control = 0): 10.39%
- Production increasing rate (winter wheat 9428; general fertilizer = 0): 5.99%
- Production per mu (winter wheat 9428): 425 kg
- Ear weight in the whole area (corn Jiyuan No. 1): 38.1 kg
- Production increasing rate comparing with urea (corn Jiyuan No. 1; in vivo): 0%

Molecule: ammonium bicarbonate [ABC]
- Increasing rate of eggplant fruit weight (eggplant; [3]): 0%
- Increasing rate of leaf number (eggplant; [3]): 0%
- Increasing rate of plant height (eggplant; [3]): 0%
- Leaf number 1 (eggplant; eggplant seedling): 15 number
- Leaf number 2 (eggplant; eggplant seedling): 33 number
- Leaf number 3 (eggplant; eggplant seedling): 4 number
- Leaf number 4 (eggplant; eggplant seedling): 26 number
- Leaf number 5 (eggplant; eggplant seedling): 28 number
- Leaf number 6 (eggplant; eggplant seedling): 15 number
- Leaf number 7 (eggplant; eggplant seedling): 28 number
- Plant height 1 (eggplant; [4]): 64 cm
- Plant height 2 (eggplant; [4]): 64 cm
- Plant height 3 (eggplant; [4]): 32 cm
- Plant height 4 (eggplant; [4]): 75 cm
- Plant height 5 (eggplant; [4]): 65 cm
- Plant height 6 (eggplant; [4]): 61 cm
- Plant height 7 (eggplant; [4]): 62 cm
- Average height (eggplant; eggplant seedling, 7 plants): 56.72 cm
- Average leaf number (eggplant; eggplant seedling, 7 plants): 21.28 number
- Eggplant fruit weight (eggplant; in vivo): 1.46 kg
- Increasing weight of eggplant fruit (eggplant; over ordinary ammonium bicarbonate (ABC)): 0 kg
- Production increasing rate (comparing with control) (winter wheat Jing411): 3.33%
- Average production per mu (winter wheat Jing411): 338.69 kg
- Increase rate [2]: 15.63%
- Average production per mu [2]: 481 kg
- Production increasing rate (winter wheat 9428; control = 0): 3.12%
- Production per mu (winter wheat 9428): 397 kg
- Ear weight in the whole area (corn Jiyuan No. 1): 39.6 kg
- Production increasing rate comparing with ammonium bicarbonate (corn Jiyuan No. 1; in vivo): 0%
- Production increasing rate comparing with urea (corn Jiyuan No. 1; in vivo): 4.07%
